# Where two headings read alike, the source gives them in different places.
# Legend:
# B. subtilis [1] = experiment: Antibacterial activity of crude compounds made by small scale synthesis; format: cell-based; details: crude reaction mixtures dissolved in DMSO, assayed directly
# Experimental: 6-Anilinouracils were synthesized using small scale synthetic methods. One milligram quantities of 3-(3-methoxypropyl)-6-chlorouracil were heated with 42 substituted anilines in micro-test tubes at 130° C. for 20 minutes. The reaction mixtures were dissolved in DMSO and assayed directly for antibacterial activity.
# MRSA = experiment: MIC against methicillin-resistant S. aureus strain MRSA / MRSA1; format: cell-based; details: Table 2
# Experimental: (§1) To further investigate the antibacterial and/or DNA pol III inhibitory activity of various drug compounds, various ester-containing moieties N-linked to the EMAU core were produced as described in Example 1. These prodrugs were assayed for inhibition of B. subtilis DNA pol III and antibiotic activity against a number of bacteria.
# (§2) The minimal inhibitory concentrations (MICs) of the four N3-substituted agents and EMAU were determined for B. subtilis (BS), methicillin-sensitive and resistant S. aureus (SA & MRSA), vancomycin-sensitive and resistant E. fecalis (EF& VREF), vancomycin-resistant E. fecium (VREF*), and E. coli (EC) as a Gram-negative control.
# S. aureus = experiment: MIC against S. aureus (methicillin-sensitive); format: cell-based; details: for MIC S. aureus: Table 2; for MIC: Staphylococcus aureus, read-out: MIC S. aureas
# Experimental: as §1, §2
# B. subtilis DNA pol III = B. subtilis DNA pol III (Bacillus subtilis, UniProt P13267); experiment: Inhibition of B. subtilis DNA pol III (Ki); format: biochemical
# B. subtilis DNA pol III, sequence (P13267 whole entry): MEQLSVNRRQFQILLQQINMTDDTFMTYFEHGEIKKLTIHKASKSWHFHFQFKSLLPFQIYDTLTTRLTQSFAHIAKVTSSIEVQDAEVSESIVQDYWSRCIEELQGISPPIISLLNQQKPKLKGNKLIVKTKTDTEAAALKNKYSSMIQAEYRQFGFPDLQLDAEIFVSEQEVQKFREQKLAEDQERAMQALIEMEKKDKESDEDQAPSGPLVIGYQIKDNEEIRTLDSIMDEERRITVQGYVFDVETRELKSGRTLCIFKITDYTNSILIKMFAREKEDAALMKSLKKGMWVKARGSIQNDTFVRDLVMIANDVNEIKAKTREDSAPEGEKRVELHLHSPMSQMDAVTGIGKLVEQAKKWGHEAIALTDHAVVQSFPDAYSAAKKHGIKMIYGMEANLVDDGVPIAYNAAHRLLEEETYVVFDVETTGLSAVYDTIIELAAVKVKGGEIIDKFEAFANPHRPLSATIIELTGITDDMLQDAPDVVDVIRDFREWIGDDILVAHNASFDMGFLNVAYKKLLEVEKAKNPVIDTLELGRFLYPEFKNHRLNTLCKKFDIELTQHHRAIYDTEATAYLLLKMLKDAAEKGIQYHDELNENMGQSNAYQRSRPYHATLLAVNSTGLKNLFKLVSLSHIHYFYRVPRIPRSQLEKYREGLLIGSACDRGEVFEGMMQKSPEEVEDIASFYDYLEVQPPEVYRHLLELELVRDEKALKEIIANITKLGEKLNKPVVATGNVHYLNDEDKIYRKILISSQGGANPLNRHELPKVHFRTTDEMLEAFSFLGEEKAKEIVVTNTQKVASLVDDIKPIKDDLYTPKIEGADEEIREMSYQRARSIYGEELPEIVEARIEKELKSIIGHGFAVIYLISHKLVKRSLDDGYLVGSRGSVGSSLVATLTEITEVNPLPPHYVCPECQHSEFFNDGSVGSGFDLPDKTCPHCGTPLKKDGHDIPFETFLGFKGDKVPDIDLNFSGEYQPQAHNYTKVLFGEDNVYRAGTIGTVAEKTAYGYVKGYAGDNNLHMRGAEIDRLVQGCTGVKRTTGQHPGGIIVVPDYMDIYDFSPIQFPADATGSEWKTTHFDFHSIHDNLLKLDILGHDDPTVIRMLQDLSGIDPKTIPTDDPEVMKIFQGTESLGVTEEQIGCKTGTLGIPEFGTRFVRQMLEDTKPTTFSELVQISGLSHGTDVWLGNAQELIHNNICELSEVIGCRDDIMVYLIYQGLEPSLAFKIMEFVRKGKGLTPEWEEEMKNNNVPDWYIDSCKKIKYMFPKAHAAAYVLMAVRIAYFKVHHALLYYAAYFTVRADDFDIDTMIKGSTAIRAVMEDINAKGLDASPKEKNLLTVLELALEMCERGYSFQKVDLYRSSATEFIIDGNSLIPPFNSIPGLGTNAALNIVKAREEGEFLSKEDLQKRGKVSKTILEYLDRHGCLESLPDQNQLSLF
# Experimental: as §1
# The competitive inhibitor constants (Ki) of selected EMAU compounds were determined with three different pol Ills: the pol III enzyme from Bacillus subtilis (BS pol III), and the pol III enzymes of the clinically relevant pathogens, Enterococcus fecalis (EF pol III) and Staphylococcus aureus (SA pol 111).
# E. coli = experiment: MIC against E. coli (Gram-negative control); format: cell-based; details: Table 2
# Experimental: as §1, §2
# B. subtilis [2] = experiment: MIC against B. subtilis; format: cell-based; details: for MIC B. subtilis: Table 2; for MIC: Bacillus subtilis, Table 6, read-out: MIC B. subtilis
# Experimental: as §1, §2
# [3] = system: vancomycin-resistant E. fecium; experiment: MIC against vancomycin-resistant E. fecium (VRE, VREF*); format: cell-based; details: Table 2, vancomycin-resistant E. fecium
# Experimental: as §1, §2
# MRSA2 = experiment: MIC against methicillin-resistant S. aureus strain MRSA2; format: cell-based; details: Table 2
# Experimental: as §1, §2
# E. fecium = experiment: MIC against E. fecium; format: cell-based; details: Table 2
# Experimental: as §1
# E. fecalis = experiment: MIC against E. fecalis; format: cell-based; details: for MIC E. fecalis: Table 2; for MIC: Table 6, read-out: MIC E. fecalis
# Experimental: as §1, §2
# [4] = Table 2, prodrugs having the EMAU core, read-out: Ki B. subtilis DNA Pol III
# [5] = Table 6, read-out: Ki, inhibition constant vs. B. subtilis DNA pol III
smiles,measurement,setting,value
COCCCn1c(=O)cc(Nc2cccc(C#N)c2)[nH]c1=O [Compound 3-CN],MIC B. subtilis,B. subtilis [1],>100 µg/mL
COCCCn1c(=O)cc(Nc2cccc(Br)c2)[nH]c1=O [Compound 3-Br],MIC B. subtilis,B. subtilis [1],>100 µg/mL
CCc1cc(Nc2cc(=O)n(CCCCOC(=O)C(N)Cc3ccccc3)c(=O)[nH]2)ccc1C (centres unmarked) [(CH2)4-OCOCH(CH2Ph)NH3^+Cl^−],MIC MRSA,MRSA,>20 μ/ml
same,MIC S. aureus,S. aureus,>20 μ/ml
same,Ki,B. subtilis DNA pol III; [4],6200 nM
same,MIC E. coli,E. coli,>20 μ/ml
same,MIC B. subtilis,B. subtilis [2],>20 μ/ml
same,MIC VRE,[3],>20 μ/ml
same,MIC MRSA2,MRSA2,>20 μ/ml
same,MIC E. fecium,E. fecium,>20 μ/ml
same,MIC E. fecalis,E. fecalis,>20 μ/ml
COCCCn1c(=O)cc(Nc2ccc(Cl)c(C(F)(F)F)c2)[nH]c1=O [Compound 3-CF3-4-Cl],MIC B. subtilis,B. subtilis [1],>100 µg/mL
"COCCCn1c(=O)cc(Nc2cc(Cl)cc(Cl)c2)[nH]c1=O [3,5-diCl]",MIC B. subtilis,B. subtilis [1],>100 µg/mL
COCCCn1c(=O)cc(Nc2cccc(CO)c2)[nH]c1=O [Compound 3-CH2OH],MIC B. subtilis,B. subtilis [1],>100 µg/mL
COCCCn1c(=O)cc(Nc2ccc(C)c(CO)c2)[nH]c1=O [Compound 3-CH2OH-4-Me],MIC B. subtilis,B. subtilis [1],>100 µg/mL
COCCCn1c(=O)cc(Nc2ccc(C)c(Cl)c2)[nH]c1=O [Compound 3-Cl-4-Me],MIC B. subtilis,B. subtilis [1],3.13 µg/mL
COCCCn1c(=O)cc(Nc2ccc(F)c(Cl)c2)[nH]c1=O [Compound 3-Cl-4-F],MIC B. subtilis,B. subtilis [1],50 µg/mL
CCc1cc(Nc2cc(=O)n(CCCCOC(=O)C(N)CO)c(=O)[nH]2)ccc1C.Cl (centres unmarked) [(CH2)4-OCOCH(CH2OH)NH3^+Cl^−],MIC MRSA,MRSA,>20 μ/ml
same,MIC S. aureus,S. aureus,>20 μ/ml
same,Ki,B. subtilis DNA pol III; [4],10 nM
same,MIC E. coli,E. coli,>20 μ/ml
same,MIC B. subtilis,B. subtilis [2],10 μ/ml
same,MIC VRE,[3],20 μ/ml
same,MIC MRSA2,MRSA2,>20 μ/ml
same,MIC E. fecium,E. fecium,20 μ/ml
same,MIC E. fecalis,E. fecalis,20 μ/ml
COCCCn1c(=O)cc(Nc2cccc(OC)c2)[nH]c1=O [Compound 3-OMe],MIC B. subtilis,B. subtilis [1],>100 µg/mL
COCCCn1c(=O)cc(Nc2ccc(Cl)cc2)[nH]c1=O [Compound 4-Cl],MIC B. subtilis,B. subtilis [1],100 µg/mL
"COCCCn1c(=O)cc(Nc2ccc(Cl)c(Cl)c2)[nH]c1=O [3,4-diCl]",MIC B. subtilis,B. subtilis [1],6.25 µg/mL
CCc1cc(Nc2cc(=O)n(CCCCOC)c(=O)[nH]2)ccc1C [MB-EMAU],MIC,S. aureus,6 µg/mL
same,Ki,B. subtilis DNA pol III; [5],430 nM
same,MIC,B. subtilis [2],< 3.1 µg/mL
same,MIC,E. fecalis,6 µg/mL
COCCCn1c(=O)cc(Nc2cccc(C)c2)[nH]c1=O [Compound 3-Me],MIC B. subtilis,B. subtilis [1],100 µg/mL
COCCCn1c(=O)cc(Nc2ccc(C)c(I)c2)[nH]c1=O [Compound 3-1-4-Me],MIC B. subtilis,B. subtilis [1],1.57 µg/mL
COCCCn1c(=O)cc(Nc2ccccc2)[nH]c1=O [—],MIC B. subtilis,B. subtilis [1],>100 µg/mL
COCCCn1c(=O)cc(Nc2ccc(C)cc2)[nH]c1=O [Compound 4-Me],MIC B. subtilis,B. subtilis [1],50 µg/mL
CCc1cc(Nc2cc(=O)n(CCCCOC(=O)C(NC(=O)OC(C)(C)C)C(C)C)c(=O)[nH]2)ccc1C (centres unmarked) [(CH2)4-OCOCH(iPr)NH-Boc],MIC MRSA,MRSA,>20 μ/ml
same,MIC S. aureus,S. aureus,>20 μ/ml
same,Ki,B. subtilis DNA pol III; [4],4900 nM
same,MIC E. coli,E. coli,>20 μ/ml
same,MIC B. subtilis,B. subtilis [2],2.5 μ/ml
same,MIC VRE,[3],>20 μ/ml
same,MIC MRSA2,MRSA2,>20 μ/ml
same,MIC E. fecium,E. fecium,>20 μ/ml
same,MIC E. fecalis,E. fecalis,>20 μ/ml
COCCCn1c(=O)cc(Nc2ccc(I)cc2)[nH]c1=O [Compound 4-I],MIC B. subtilis,B. subtilis [1],100 µg/mL
COCCCn1c(=O)cc(Nc2ccc(C(C)C)cc2)[nH]c1=O [Compound 4-iPR],MIC B. subtilis,B. subtilis [1],>100 µg/mL
COCCCn1c(=O)cc(Nc2cccc(I)c2)[nH]c1=O [Compound 3-I],MIC B. subtilis,B. subtilis [1],25 µg/mL
COCCCn1c(=O)cc(Nc2cccc([N+](=O)[O-])c2)[nH]c1=O [Compound 3-NO2],MIC B. subtilis,B. subtilis [1],>100 µg/mL
"COCCCn1c(=O)cc(Nc2ccc(Br)c(Br)c2)[nH]c1=O [3,4-diBr]",MIC B. subtilis,B. subtilis [1],3.13 µg/mL
CCc1cc(Nc2cc(=O)n(CCCCOC(=O)C(C)N)c(=O)[nH]2)ccc1C (centres unmarked) [(CH2)4-OCOCHCH3NH3^+Cl^−],MIC MRSA,MRSA,20 μ/ml
same,MIC S. aureus,S. aureus,20 μ/ml
same,Ki,B. subtilis DNA pol III; [4],180 nM
same,MIC E. coli,E. coli,>20 μ/ml
same,MIC B. subtilis,B. subtilis [2],2.5 μ/ml
same,MIC VRE,[3],10 μ/ml
same,MIC MRSA2,MRSA2,20 μ/ml
same,MIC E. fecium,E. fecium,10 μ/ml
same,MIC E. fecalis,E. fecalis,10 μ/ml
COCCCn1c(=O)cc(Nc2cccc(C(C)O)c2)[nH]c1=O (centres unmarked) [3-CH(OH)CH3],MIC B. subtilis,B. subtilis [1],>100 µg/mL
"COCCCn1c(=O)cc(Nc2cc(F)c(F)c(F)c2)[nH]c1=O [3,4,5-triF]",MIC B. subtilis,B. subtilis [1],>100 µg/mL
"CCc1cc(Nc2cc(=O)n(CCCCI)c(=O)[nH]2)ccc1C [IB-EMAU, 3-(4-iodobutyl)-6-(3-ethyl-4-methylanilino)uracil]",MIC,S. aureus,12 µg/mL
same,Ki,B. subtilis DNA pol III; [5],360 nM
same,MIC,B. subtilis [2],< 3.1 µg/mL
same,MIC,E. fecalis,6 µg/mL
CCc1ccc(Nc2cc(=O)n(CCCOC)c(=O)[nH]2)cc1 [Compound 4-Et],MIC B. subtilis,B. subtilis [1],50 µg/mL
COCCCn1c(=O)cc(Nc2ccc(C#N)cc2)[nH]c1=O [Compound 4-CN],MIC B. subtilis,B. subtilis [1],>100 µg/mL
"COCCCn1c(=O)cc(Nc2ccc(OC)c(OC)c2)[nH]c1=O [3,4-diOMe]",MIC B. subtilis,B. subtilis [1],>100 µg/mL
COCCCn1c(=O)cc(Nc2ccc(CC(C)C)cc2)[nH]c1=O [Compound 4-iBU],MIC B. subtilis,B. subtilis [1],>100 µg/mL
"COCCCn1c(=O)cc(Nc2ccc(C)c(C)c2)[nH]c1=O [3,4-diMe]",MIC B. subtilis,B. subtilis [1],6.26 µg/mL
CCc1cc(Nc2cc(=O)n(CCCCOC(=O)C3CCCN3C(=O)OC(C)(C)C)c(=O)[nH]2)ccc1C (centres unmarked) [(CH2)4-OCOCH(CH2)3NH-Boc],MIC MRSA,MRSA,20 μ/ml
same,MIC S. aureus,S. aureus,10 μ/ml
same,Ki,B. subtilis DNA pol III; [4],3200 nM
same,MIC E. coli,E. coli,>20 μ/ml
same,MIC B. subtilis,B. subtilis [2],<1.25 μ/ml
same,MIC VRE,[3],10 μ/ml
same,MIC MRSA2,MRSA2,10 μ/ml
same,MIC E. fecium,E. fecium,10 μ/ml
same,MIC E. fecalis,E. fecalis,10 μ/ml
COCCCn1c(=O)cc(Nc2ccc(F)cc2)[nH]c1=O [Compound 4-F],MIC B. subtilis,B. subtilis [1],>100 µg/mL
COCCCn1c(=O)cc(Nc2cccc(Cl)c2)[nH]c1=O [Compound 3-Cl],MIC B. subtilis,B. subtilis [1],>100 µg/mL
"COCCCn1c(=O)cc(Nc2ccc(F)c(F)c2)[nH]c1=O [3,4-diF]",MIC B. subtilis,B. subtilis [1],>100 µg/mL
Cc1ccc(Nc2cc(=O)n(CCCCI)c(=O)[nH]2)cc1I [IB-IMAU],MIC,S. aureus,6 µg/mL
same,Ki,B. subtilis DNA pol III; [5],660 nM
same,MIC,B. subtilis [2],< 3.1 µg/mL
same,MIC,E. fecalis,6 µg/mL
COCCCn1c(=O)cc(Nc2cccc(F)c2)[nH]c1=O [Compound 3-F],MIC B. subtilis,B. subtilis [1],>100 µg/mL
CCc1cc(Nc2cc(=O)n(CCCCOC(=O)C(CO)NC(=O)OC(C)(C)C)c(=O)[nH]2)ccc1C (centres unmarked) [(CH2)4-OCOCH(CH2OH)NH-Boc],MIC MRSA,MRSA,20 μ/ml
same,MIC S. aureus,S. aureus,20 μ/ml
same,Ki,B. subtilis DNA pol III; [4],1500 nM
same,MIC E. coli,E. coli,>20 μ/ml
same,MIC B. subtilis,B. subtilis [2],5 μ/ml
same,MIC VRE,[3],5 μ/ml
same,MIC MRSA2,MRSA2,20 μ/ml
same,MIC E. fecium,E. fecium,10 μ/ml
same,MIC E. fecalis,E. fecalis,5 μ/ml
COCCCCn1c(=O)cc(Nc2ccc(C)c(I)c2)[nH]c1=O [ME-IMAU],MIC,S. aureus,6 µg/mL
same,Ki,B. subtilis DNA pol III; [5],540 nM
same,MIC,B. subtilis [2],< 3.1 µg/mL
same,MIC,E. fecalis,3 µg/mL
COCCCn1c(=O)cc(Nc2ccc(Br)c(C(F)(F)F)c2)[nH]c1=O [Compound 3-CF3-4-Br],MIC B. subtilis,B. subtilis [1],>100 µg/mL
CCCc1ccc(Nc2cc(=O)n(CCCOC)c(=O)[nH]2)cc1 [Compound 4-Pr],MIC B. subtilis,B. subtilis [1],>100 µg/mL
"COCCCn1c(=O)cc(Nc2cc(OC(F)(F)F)cc(OC(F)(F)F)c2)[nH]c1=O [3,5-diOCF3]",MIC B. subtilis,B. subtilis [1],>100 µg/mL
COCCCn1c(=O)cc(Nc2ccc(O)cc2)[nH]c1=O [Compound 4-OH],MIC B. subtilis,B. subtilis [1],>100 µg/mL
COCCCn1c(=O)cc(Nc2ccc(OC)c(Cl)c2)[nH]c1=O [Compound 3-Cl-4-OMe],MIC B. subtilis,B. subtilis [1],50 µg/mL
"COCCCn1c(=O)cc(Nc2cc(C)cc(C)c2)[nH]c1=O [3,5-diMe]",MIC B. subtilis,B. subtilis [1],50 µg/mL

# — patent publication US6448256B1, “Antibiotic prodrugs” (University of Massachusetts, priority 1999, dated 2002)
